Assay results taken from article PMC12064818, “A general assay platform to study protein pharmacology using ligand-dependent structural dynamics” (Nature Communications, 2025).
Several values for one entry are separate records, joined by “and”; a condition that tells them apart may be missing. Equal values may be shown once. Values belong to the compound of their own block, whether it stands above or below them.

Key:
PKA-N-HiBiT [1] = biological target: T1, PKA-N-HiBiT (Homo sapiens, UniProt P17612); assay: SDR assay, PKA-N-HiBiT; conditions: for SDR Ave Max Response: PKA-N-HiBiT qHTS, SDR assay, average maximal response
ABL1 = conditions: cited from earlier work
PKA = conditions: annotation yes/no for kinase library compound; source not given; cited from earlier work
[2] = biological target: T2, ABL1-N-HiBiT kinase domain (Homo sapiens, UniProt P00519); assay: SDR assay, ABL1-N-HiBiT; conditions: for SDR Ave Max Response: average maximal SDR response; for SDR output: ABL1-N-HiBiT, Log [Compound]
T2 sequence (P00519 233-500): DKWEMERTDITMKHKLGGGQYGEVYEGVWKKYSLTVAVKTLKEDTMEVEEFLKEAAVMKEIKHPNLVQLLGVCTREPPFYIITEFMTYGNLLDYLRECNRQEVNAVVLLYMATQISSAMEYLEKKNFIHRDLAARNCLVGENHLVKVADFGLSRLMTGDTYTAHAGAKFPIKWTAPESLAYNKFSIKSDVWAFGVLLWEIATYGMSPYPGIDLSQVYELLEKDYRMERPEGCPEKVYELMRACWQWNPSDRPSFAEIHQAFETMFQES

PKA-N-HiBiT [3] = biological target: T1, PKA-N-HiBiT; assay: PKA peptide phosphorylation, Kinase-Glo Plus (KGP) assay, PKA-N-HiBiT; assay type: biochemical; design: containing amino acids Gly2-Phe351; His10 (N); made in house; host or cells: E. coli BL21(DE3); conditions: KGP Rep 1
Procedure: Kinase activity was measured by ATP depletion using the Kinase-Glo Plus (KGP) assay kit (Promega) in 1536-well plate format. […] Controls were added with a Mosquito dispenser (STP LabTech) while compounds were transferred with a pintool to each plate as described in Supplementary Data 8 and incubated for 30 min at ambient temperature. […] Following a 10 min incubation, KGP luminescence was measured with a ViewLux plate reader with 1 sec exposure, with medium to high gain setting, slow speed and 2x binning. Data were normalized to the average of no enzyme control column as 100% kinase inhibition and DMSO control column as 100% phosphorylation reaction progress. See Supplementary Table 5 for additional details.
Protocol for Abelson kinase (ABL1) and protein kinase A (PKA) peptide phosphorylation assays
Supplementary Table 5: Protocol for Abelson kinase (ABL1) and protein kinase A (PKA) peptide phosphorylation assays Sequence Param eter Value Description
3 Incubation 30 m in Incubate enzym e + com pounds at am bient tem p for 30 m in, protected from light […]
protocol; dispensed with BioRaptr 2

[4] = biological target: T2, ABL1-N-HiBiT kinase domain; assay: ABL1 peptide phosphorylation, Kinase-Glo Plus (KGP) assay, ABL1-N-HiBiT; assay type: biochemical; design: containing amino acid residues Asp233-Ser500; His10 (N); made in house; host or cells: E. coli BL21(DE3)
[5] = biological target: T3, ABL1-C-HiBiT kinase domain (Homo sapiens, UniProt P00519); assay: SDR assay, ABL1-C-HiBiT; conditions: for SDR output: ABL1-C-HiBiT, Log [Compound]
T3 sequence (P00519 233-500): T2 sequence (P00519 233-500)

DHFR-C-HiBiT [6] = biological target: T4, DHFR-C-HiBiT (Homo sapiens, UniProt P00374); assay: SDR assay, purified DHFR-C-HiBiT; conditions: for enhanced sensitivity in the SDR assay format versus functional DHFR assay: DHFR-C-HiBiT 0.5 nM, 5 μM NADPH (SDR) vs 100 nM, 75 μM NADPH (functional)
T4 sequence (P00374 2-187): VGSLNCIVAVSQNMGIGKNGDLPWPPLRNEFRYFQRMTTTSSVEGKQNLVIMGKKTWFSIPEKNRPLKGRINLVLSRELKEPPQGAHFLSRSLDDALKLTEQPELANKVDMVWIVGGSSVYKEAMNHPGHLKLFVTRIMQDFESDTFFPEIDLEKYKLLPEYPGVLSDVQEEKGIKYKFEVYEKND

[7] = biological target: T5, endogenous DHFR-C-HiBiT in HEK293 cell lysate (Homo sapiens, UniProt P00374); assay: SDR assay, cellular lysate from DHFR C-terminus HiBiT gene edited HEK293 cells; assay type: binding
T5 construct: from a mammalian cellular lysate containing an endogenous α-peptide tagged protein, obtained using CRISPR/Cas9-mediated homologous recombination; host or cells: HEK293 constitutively expressing S. pyogenes Cas9, CRISPR/HDR-edited monoclonal line; NP-40 lysate used at 1:100
T5 sequence (P00374 1-187): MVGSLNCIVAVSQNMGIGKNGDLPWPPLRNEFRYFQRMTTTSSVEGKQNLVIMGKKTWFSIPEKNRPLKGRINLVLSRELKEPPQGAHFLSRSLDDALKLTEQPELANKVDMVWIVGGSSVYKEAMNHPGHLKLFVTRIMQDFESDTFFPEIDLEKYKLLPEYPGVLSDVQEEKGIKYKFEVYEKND
Source text: A HEK293 cell line constitutively expressing S. pyogenes Cas9 (GeneCopoeia, Cat # SL553) was used to generate the C-terminal edit of the DHFR gene (DHFR-C-HiBiT) applying general methodology previously described[24],[52],[53]. The DHFR 3’-gene sequence surrounding the stop codon (underlined), […] […], used to generate the CRISPR-Cas9 crRNA sequence, […], was accomplished with IDT software (Custom Alt-R CRISPR-Cas9 guide RNA).
For lysate preparation, the DHFR-C-HiBiT gene edited HEK293 monoclonal cell line was grown in a T75 flask (DMEM, 10% FBS, 1% P/S) to confluence. […] The cell pellet was lysed by adding 500 μL ice-cold NP-40 lysis buffer (ThermoFisher Scientific, Cat # FNN0021) containing 5 µL 100x protease inhibitor cocktail in DMSO (Sigma Aldrich, Cat # P8340-1mL) incubated on a rocker at 4 °C for 1 h (protected from light), centrifuged at 15,000 g for 10 min at 4 °C, after which supernatant was transferred to a 1.5 mL Eppendorf tube, and frozen at −80 °C.
Protein-HiBiT targets were expressed and purified to various levels of homogeneity and optimized at indicated concentrations, not necessarily the lowest possible concentrations, to produce consistent luminescence with statistically significant signal above no protein background control in target specific assay buffer (see Supplementary Table 11). Four μL/well buffer control (column 1) and NLuc or HiBiT tagged proteins (columns 2-48) were dispensed into 1536-well Greiner Bio-One white, high solid base, medium bind plates with a BioRaptr 2. Compounds and controls were added to the microtiter plates as described in Supplementary Data 8, then incubated and protected from light for 30 min at ambient temperature. A modified dispensing protocol was developed for aqueous ligands that were unable to be transferred by pintool (see Supplementary Table 10 aqueous ligand dispense section). The substrate solution was prepared according to manufacturer’s protocol where ω-fragment (LgBiT) was added at 1:100 dilution and NLuc substrate (furimazine) was prepared at 1:50 dilution in Nano-Glo HiBiT lytic buffer (Promega, Cat # N3040). This substrate solution, 3 μL/well, was added with a BioRaptr 2 and assay plates were protected from light and incubated for 10 min at ambient temperature. NLuc luminescence was measured on a ViewLux CCD plate reader with optimized reader settings to each protein target (see Supplementary Tables 10, 11 and Supplementary Fig. 14 for additional details).

DHFR-C-HiBiT [8] = biological target: T4, DHFR-C-HiBiT; assay: Dihydrofolate reductase enzymatic absorbance assay; assay type: biochemical; design: His10 (C); made in house; host or cells: E. coli
Procedure: To accommodate consistent compound addition used in this study, DHFR enzymatic activity[72],[73] was measured in a 1536-well miniaturized assay adapted from the Sigma-Aldrich dihydrofolate reductase assay (Cat # CS0340). […] Compounds and controls were added as above to each plate as described in Supplementary Data 8. DHFR-C-HiBiT was incubated with compounds for 20 min at ambient temperature. […] Then 2 µL of dihydrofolate (DHF, Sigma-Aldrich, Cat # D7006) substrate, freshly prepared according to manufacturer’s protocol and diluted in 1X assay kit buffer, was dispensed into each microplate well with a BioRaptr 2 for a final assay DHF concentration of 100 μM. […] See Supplementary Table 9 for additional details.
Supplementary Table 9. Protocol for Dihydrofolate reductase (DHFR) enzymatic absorbance […]
Supplementary Table 9: Protocol for Dihydrofolate reductase (DHFR) enzym atic absorbance assay Sequence Param eter ValueDescription
No enzym e control (colum n 1) and enzym e solution (100 nM DHFR-C-HiBiT final assay […]
(Aurora), dispensed with BioRaptr 2 […]
com pounds transferred to respective colum ns with Pintool
2b Test Com pounds 23 nLfinal concentration range) in colum ns 5-48; com pounds transferred to respective wells with […]
3 Incubation 20 m inIncubate enzym e + com pounds at am bient tem p for 20 m in, protected from light 5 Reagent 2 µLSubstrate solution; dihydrofolic acid (100 µM final concentration) in 1X assay buffer; dispensed with BioRaptr 2
6 Incubation 10 m inAm bient tem perature, protected from light
Dihydrofolic acid substrate solution: 1X assay buffer (Sigm a-Aldrich, Cat # A5603); 300 µM dihydrofolic acid (100 µM 5 final) (Sigm a-Aldrich, Cat # D7006) prepared fresh according to m anufacturer’s protocol. Solution filtered through 0.22 µm syringe filter prior to dispense.

SMILES: Cn1c(=O)c2c(ncn2C)n(C)c1=O [Caffeine]
SDR Ave Max Response (PKA-N-HiBiT [1]): -17.81 | Annotated ABL1 activity (ABL1): no | Annotated PKA activity (PKA): no | SDR Ave Max Response ([2]; ABL1-N-HiBiT qHTS): 3.59 | Efficacy (PKA-N-HiBiT [3]): -14.65 | Hill Coef (PKA-N-HiBiT [3]): 2.85 | Max Resp (PKA-N-HiBiT [3]): 7.79 | CC-v2 (PKA-N-HiBiT [3]; curve class): 4

SMILES: O=C(NCCO)c1cccc(-c2cc(Nc3ccc(OC(F)(F)F)cc3)ncn2)c1 [GNF5]
Effect on enzyme catalysis ([4]; Log [Compound], M -4.51): 1.2 and 2.4 | SDR output ([2]; M -4.51): -1.2 | SDR output ([2]; M -8.12): 1.9 and 2.5 | SDR output ([2]; M -8.42): 2.5 | SDR output ([2]; M -8.72): 2.7 and 1.9 | SDR output ([5]; M -4.20): 11.5 and 10.7 | SDR output ([5]; M -5.41): 4.5 and 3.0 | SDR output ([5]; M -5.71): 0.159 and 0.3 | SDR output ([5]; M -7.21): 1.8 and 1.6 | SDR output ([5]; M -7.52): 3.3 and 3.0 | SDR output ([5]; M -7.82): 5.4 and 5.3 | SDR output ([5]; M -8.12): 3.3 and 3.7 | SDR output ([5]; M -8.42): 7.4 and 4.5

SMILES: O=C(NCCO)c1cccc(-c2cc(Nc3ccc(OC(F)(F)F)cc3)ncn2)c1 [GNF-5, reference compound]
Emax (PKA-N-HiBiT [1]; read-out: SDR Ave Max Response): 1.25% | detection in functional enzymatic ABL1 kinase assay (in words) ([4]; KGP assay): neither was identified | Annotated PKA activity (PKA): no | detection in ABL1-N-HiBiT SDR assay (in words) [2]: neither was identified | Emax ([2]; read-out: SDR Ave Max Response): 13.8% | detection in ABL1-C-HiBiT SDR assay (in words) [5]: beginning to detect

SMILES: COc1ccccc1-c1c[nH]c2ncc(-c3cncc(C(=O)N(C)C)c3)cc12 [PPY A]
SDR Ave Max Response (PKA-N-HiBiT [1]): 11.97 | ABL1 KGP pIC50 ([4]; ABL1, Kinase-Glo Plus (KGP), heatmap data, 128 kinase inhibitors): 7.53 | IC50 ([4]; ABL1-N-HiBiT qHTS, average, unit inferred, read-out: ABL1 KGP Ave IC50): 34.1 nM | Annotated ABL1 activity (ABL1): yes | Annotated PKA activity (PKA): no | ABL1 SDR pSDR50 ([2]; ABL1, SDR, heatmap data, 128 kinase inhibitors): 8.52 | SDR Ave Max Response ([2]; ABL1-N-HiBiT qHTS): 88.01 | EC50 ([2]; read-out: SDR Ave SDR50, ABL1-N-HiBiT qHTS, average, unit inferred): 3.04 nM

SMILES: Nc1nc(N)c2nc(CNc3ccc(C(=O)N[C@@H](CCC(=O)O)C(=O)O)cc3)cnc2n1 [aminopterin]
enhanced sensitivity in the SDR assay format versus functional DHFR assay (DHFR-C-HiBiT [6]): ~ 100 fold

pSDR50 (lysate + 1 mM NADPH), Mean ([7]; 1:100 lysate (~0.2 nM) with 1 mM NADPH): 9.1 | pSDR50 (lysate), Mean ([7]; 1:100 lysate (~0.2 nM) without added NADPH): 7.8 | pSDR50 (DHFR-C-HiBiT), Mean (DHFR-C-HiBiT [6]; SDR assay using DHFR-C-HiBiT (0.5 nM)): 8.70 | pIC50 (DHFR Enz Assay), Mean (DHFR-C-HiBiT [8]; functional DHFR-C-HiBiT assay (100 nM, 75 mM NADPH)): 6.55
SMILES: CN(Cc1cnc2nc(N)nc(N)c2n1)c1ccc(C(=O)NC(CC(F)C(=O)O)C(=O)O)cc1 (centres unmarked) [g-fluoromethotrexate]

DHFR binding in SDR assay (in words) (DHFR-C-HiBiT [6]; purified DHFR-C-HiBiT): poor DHFR affinity | DHFR affinity in functional assay (in words) (DHFR-C-HiBiT [8]; DHFR-C-HiBiT 100 nM, 75 μM NADPH): poor DHFR affinity
SMILES: Nc1nc2[nH]cc(CCc3ccc(C(=O)N[C@@H](CCC(=O)O)C(=O)O)cc3)c2c(=O)[nH]1 [pemetrexed]

enhanced sensitivity in the SDR assay format versus functional DHFR assay (DHFR-C-HiBiT [6]): ~ 100 fold
SMILES: COc1cc(NCc2ccc3nc(N)nc(N)c3c2C)cc(OC)c1OC [trimetrexate]

enhanced sensitivity in the SDR assay format versus functional DHFR assay (DHFR-C-HiBiT [6]): ~ 100 fold
SMILES: CN(Cc1cnc2nc(N)nc(N)c2n1)c1ccc(C(=O)NC(CC(F)C(=O)O)C(=O)O)cc1 (centres unmarked) [γ-fluoromethotrexate]
